In US12133851B2, “Treatment of cholangiocarcinoma” (Janssen Pharmaceutica NV, priority 2018, dated 2024):
Read-outs that look alike come from different tables or passages of the source.

How the values were obtained:
[1] = test system: advanced cholangiocarcinoma subjects with FGFR alterations
Experimental: Tumor assessments: Conducted every 8 (±1) weeks up to 1 year from start of study drug, then every 12 (±1) weeks thereafter until the patient dies, or withdrawal of consent or conclusion of the study, whichever occurs first.
ORR (complete response [CR] or partial response [PR]) and disease control rate (DCR) was calculated with 95% CI.
PFS was represented with descriptive summary statistics; Kaplan-Meier method was used for evaluation.

[2] = LUC2001 (NCT02699606): pharmacokinetics and PK/PD (serum phosphate); assay type: in vivo, human
Experimental: Pharmacodynamic and safety: Serum phosphate concentration was continuously monitored as a pharmacodynamic endpoint during the study to facilitate dose adjustment per protocol specification. Serum phosphate was measured on cycle 1 day 14 for pharmacodynamic uptitration. On study, serum phosphate concentration was set to be below 7 mg/dL in order to avoid prolonged hyperphosphatemia.
Post hoc visual predictive check was performed on an existing population PK model, built with data from 373 patients with various tumor types (majority were caucasians).
Post hoc visual predictive check was performed on serum phosphate concentration data based on an existing population PK/PD model.

[3] = test system: patients with FGFR-aberrant cholangiocarcinoma
[4] = as of 20 Aug. 2018, FGFR2 fusion
[5] = as of 20 Aug. 2018, patients with FGFR2 alteration (n=9)
[6] = snapshot as of 20 Mar. 2018, 11 response evaluable, 8 mg qd
[7] = as of 20 Aug. 2018, 11 patients
[8] = conclusion of snapshot 20 Mar. 2018
[9] = snapshot as of 20 Mar. 2018, 8 mg qd
[10] = snapshot as of 20 Mar. 2018, 11 subjects, 8 mg qd
[11] = median follow-up 5.5 mo, 11 patients
[12] = of the 3 partial responses among 11 patients

## COc1cc(OC)cc(N(CCNC(C)C)c2ccc3ncc(-c4cnn(C)c4)nc3c2)c1 [erdafitinib, N-(3,5-dimethoxy-phenyl)-N′-(1-methylethyl)-N-[3-(1-methyl-1H-pyrazol-4-yl)quinoxalin-6-yl]ethane-1,2-diamine]
[1]; as of 20 Aug. 2018, 11 response evaluable, 8 mg once daily, n=5, 95% CI 16.7;76.6
  ORR - Objective Response Rate (CR+PR): 45.5%
[1]; as of 20 Aug. 2018, 11 response evaluable, 8 mg once daily, n=6, 95% CI 23.4;83.3
  ORR (CR+PR+uCR+uPR): 54.5%
[1]; as of 20 Aug. 2018, 11 response evaluable, 8 mg once daily, n=8, 95% CI 39.0;94.0
  Disease Control Rate-DCR (CR+PR+SD): 72.7%
[1]; as of 20 Aug. 2018, 11 response evaluable, 8 mg once daily, n=9, 95% CI 48.2;97.7
  DCR (CR+PR+uCR+uPR+SD): 81.8%
[1]; as of 20 Aug. 2018, 95% CI 11, 68
  9-months PFS rate: 40%
[1]; [4]
  stable disease (SD), number of patients: 3
  unconfirmed PR, number of patients: 1
[1]; as of 20 Aug. 2018, all FGFR2 alteration (1 mutation and 4 fusions)
  confirmed PR, number of patients: 5
[1]; as of 20 Aug. 2018, both with FGFR3 mutations and concurrent KRAS mutations
  progressive disease (PD), number of patients: 2
[1]; [5]
  9-months PFS rate: 49%
  DCR: 100%
  ORR (CR+PR+uCR+uPR): 66.7%
[1]; one PR patient with a FGFR2-KIAA1598 fusion
  maximum tumor shrinkage: −46.2%
[1]; [6]
  DCR (CR+PR+uCR+uPR+SD): 81.8%
  ORR (CR+PR+uCR+uPR): 45.5%
  PD, number of subjects: 2
  partial response (PR), number of subjects: 3
  stable disease (SD), number of subjects: 4
  unconfirmed PR (uPR), number of subjects: 2
Erdafitinib 8 mg (QD), N = 11
  Drug-related TEAE Alanine aminotransferase increased, Any grade: 2 N
  Drug-related TEAE Aspartate aminotransferase increased, Any grade: 2 N
  Drug-related TEAE Constipation, Any grade: 3 N
  Drug-related TEAE Decreased appetite, Any grade: 3 N
  Drug-related TEAE Diarrhoea, Any grade: 3 N
  Drug-related TEAE Dry eye, Any grade: 2 N
  Drug-related TEAE Dry mouth, Any grade: 8 N
  Drug-related TEAE Dry mouth, ≥Grade 3: 1 N
  Drug-related TEAE Dry skin, Any grade: 5 N
  Drug-related TEAE Dry skin, ≥Grade 3: 1 N
  Drug-related TEAE Hyperphosphataemia, Any grade: 10 N
  Drug-related TEAE Hyponatremia, Any grade: 1 N
  Drug-related TEAE Hyponatremia, ≥Grade 3: 1 N
  Drug-related TEAE Nail disorder, Any grade: 4 N
  Drug-related TEAE Nail disorder, ≥Grade 3: 1 N
  Drug-related TEAE Nausea, Any grade: 2 N
  Drug-related TEAE Onycholysis, Any grade: 1 N
  Drug-related TEAE Onycholysis, ≥Grade 3: 1 N
  Drug-related TEAE Onychomycosis, Any grade: 2 N
  Drug-related TEAE Palmar-plantar erythrodysaesthesia syndrome, Any grade: 4 N
  Drug-related TEAE Paronychia, Any grade: 3 N
  Drug-related TEAE Paronychia, ≥Grade 3: 1 N
  Drug-related TEAE Punctate keratitis, Any grade: 2 N
  Drug-related TEAE Stomatitis, Any grade: 8 N
  Drug-related TEAE Stomatitis, ≥Grade 3: 2 N
  Patients with drug-related TEAEs, Any grade: 11 N
  Patients with drug-related TEAEs, ≥Grade 3: 6 N
As of 20 Aug. 2018, 8 mg once daily
  patients reporting Grade 3 or higher TEAEs: 6/11
[7]
  AE leading to treatment discontinuation or death: no AE
  most common TEAEs: hyperphosphatemia, dry mouth, stomatitis, dry skin, nail disorder, and palmar-plantar erythrodysaesthesia syndrome
As of 20 Aug. 2018, 11 patients, 8 mg once daily
  patients who experienced drug-related TEAEs: All patients
As of 20 Aug. 2018, of 11 (27.3%), upper gastrointestinal haemorrhage, pyelonephritis acute, pathological fracture, n=1 each
  Serious TEAEs (not drug-related): 3 patients
As of 20 Aug. 2018, of 11 patients (45.5%)
  Drug-related TEAEs leading to dose reduction: 5 patients
As of 20 Aug. 2018, of 11 patients (54.5%)
  Grade 3 or higher drug-related TEAEs: Six
As of 20 Aug. 2018, of 11 patients (100%)
  drug-related TEAEs leading to dose interruption: 11 patients
[8]
  safety profile in patients with FGFR-aberrant advanced cholangiocarcinoma: tolerable safety profile
[9]
  AE diarrhea (subjects): 4/11
  AE dry mouth (subjects): 7/11
  AE hyperphosphatemia (subjects): 8/11
  AE nail disorder (subjects): 4/11
  AE palmar-plantar erythrodysaesthesia syndrome (subjects): 4/11
  AE stomatitis (subjects): 7/11
[10]
  AE leading to treatment discontinuation or death: no AE
  drug related SAE: no drug related SAE
  subjects who experienced AEs: All subjects
  subjects who experienced Grade 3 or worse AEs: 7
  subjects who experienced serious AEs (SAEs): 3
  subjects with AEs leading to dose reduction: 3
  subjects with AEs leading to drug interruption: all
[2]; as of 20 Aug. 2018, post hoc visual predictive check on population PK and PK/PD models
  results of PK and PK/PD relationship in Asian patients with advanced CCA: consistent with that known from patients with other types of solid tumor and different ethnic background
[2]; [8]
  PK characteristics: consistent with data from other erdafitinib studies
[3]; 9 mg QD or 10 mg intermittent, all responses at 10 mg intermittent
  objective response rate: 27.3%
[3]; 11 patients with FGFR-aberrant cholangiocarcinoma, 9 mg QD (n=1) or 10 mg intermittent (n=10)
  partial responses (number of patients): 3
[3]; 11 patients, 9 mg QD or 10 mg intermittent, 6/11
  Overall disease control rate, including stable disease: 54.5%
[3]; [11]
  6-mo progression-free survival rate: 36%
  9-mo progression-free survival rate: 24%
[3]; median follow-up 5.5 mo, 95% CI 1.6 to 11.8 mo
  Median progression-free survival: 5.1 mo
[3]; [12]
  partial responses in patients with fusion FGFR2-BICC1: 1
  partial responses in patients with fusion FGFR2-CCAR1: 1
